Among the data in PubChem BioAssay (NCI) are GI50 and TGI values, retold here.

Several values for one entry are separate records, joined by “and”; a condition that tells them apart may be missing. Equal entries are not always repeated.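 The compound was tested at five concentrations on cells cultured in 96-well plates, with a 48-hour exposure period. Here, GI50 denotes the concentration required for 50% inhibition of growth. At the TGI there is no net growth.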

Among the test systems are EKVX NSCLC; LOX IMVI melanoma; MDA-MB-435; OVCAR-3 ovarian; OVCAR-5 ovarian; RXF 393 renal; SF-295 CNS; SK-MEL-28 melanoma; U251 CNS; UACC-62 melanoma.
Common to all, as to assay: NCI-60 cell line screen, 48 h

As to `O=C(Nc1ccc(Cl)cc1)NS(=O)(=O)c1ccc2c(c1)CCC2`, the GI50 is 22.4 µg/mL in the test with EKVX NSCLC; 5.61 µg/mL in the test on OVCAR-3 ovarian; 20 µg/mL in the test with OVCAR-5 ovarian; 2.52 µg/mL in the test on RXF 393 renal; 12 µg/mL with SF-295 CNS; 20.1 µg/mL in the test with SK-MEL-28 melanoma. Moreover, the GI50 with U251 CNS was 22.5 µg/mL; with UACC-62 melanoma, 15.9 µg/mL. In addition, the TGI is > 100 µM and 72.1 µg/mL in the test with EKVX NSCLC; above 79.9 µM in the test with LOX IMVI melanoma; 48.3 µM in the test with MDA-MB-435; 73.8 µM and 21.4 µg/mL with OVCAR-3 ovarian; > 91 µM and 39.3 µg/mL in the test with OVCAR-5 ovarian; 79.3 µM and 22.8 µg/mL in the test with RXF 393 renal. Moreover, the TGI in the test with SF-295 CNS is > 100 µM and 31.9 µg/mL; in the test on SK-MEL-28 melanoma it was > 100 µM and 39.3 µg/mL; in the test with U251 CNS, > 77.5 µM and 48.3 µg/mL; with UACC-62 melanoma it was > 84.7 µM and 36.7 µg/mL.
With `Cc1ncc(C(=O)Nc2ccc(CN3CCN(C)CC3)c(C(F)(F)F)c2)cc1C#Cc1c(N)ncc2ccc(C#N)cc12`, the GI50 is 0.54 µM with EKVX NSCLC; 92 nM with LOX IMVI melanoma; 163 nM with MDA-MB-435; 1570 nM with OVCAR-3 ovarian; 1.25 µM with OVCAR-5 ovarian; 327 nM in the test on RXF 393 renal. Moreover, the GI50 in the test on SF-295 CNS was above 26700 nM; in the test on SK-MEL-28 melanoma it was 67.6 nM; with U251 CNS, 5800 nM; in the test with UACC-62 melanoma it was 36.2 nM. Moreover, the TGI in the test on EKVX NSCLC was above 22.8 µM; in the test with LOX IMVI melanoma, 0.791 µM; in the test with MDA-MB-435, 3.31 µM; in the test with OVCAR-3 ovarian, 8.54 µM; in the test on OVCAR-5 ovarian, 10.9 µM; in the test on RXF 393 renal, 1.29 µM. Further, the TGI in the test on SF-295 CNS is above 50 µM; in the test on SK-MEL-28 melanoma, 1.91 µM; with U251 CNS, 14.4 µM; with UACC-62 melanoma it was 6.1 µM.
For `Cc1cc(Cl)n2c(nc3ccccc32)c1C#N`, the GI50 in the test with EKVX NSCLC was 7.84 µM; in the test on LOX IMVI melanoma it was 260 nM; in the test with MDA-MB-435, 327 nM; with OVCAR-3 ovarian it was 583 nM; with OVCAR-5 ovarian, 0.83 µM; in the test on RXF 393 renal, 854 nM. Besides, the GI50 with SF-295 CNS was 521 nM; in the test on SK-MEL-28 melanoma it was 1400 nM; in the test with U251 CNS, 482 nM; in the test on UACC-62 melanoma, 1140 nM. Moreover, the TGI in the test on EKVX NSCLC turned out to be 24.8 µM; with LOX IMVI melanoma it was 1.35 µM; in the test on MDA-MB-435, 1.6 µM; with OVCAR-3 ovarian, 1.86 µM; with OVCAR-5 ovarian, 10.8 µM; in the test on RXF 393 renal, 2.66 µM. The TGI with SF-295 CNS was determined as 4.91 µM; in the test with SK-MEL-28 melanoma, 6.34 µM; with U251 CNS, 3.17 µM; in the test on UACC-62 melanoma, 3.66 µM.
For the compound `COC1CC(OC2OC(CO)C(O)C(O)C2O)/C(=C\C#N)C(O)C1OC` (stereo not drawn), the TGI in the test on EKVX NSCLC, in the test on LOX IMVI melanoma, with MDA-MB-435, with OVCAR-3 ovarian, in the test on OVCAR-5 ovarian and in the test on RXF 393 renal was above 100 µM throughout. Further, the TGI in the test on SF-295 CNS, in the test with SK-MEL-28 melanoma, with U251 CNS and in the test with UACC-62 melanoma was above 100 µM throughout.
On to `CC/C(=C(\c1ccccc1)c1ccc(OCCN(C)C)cc1)c1ccccc1`, for which the GI50 in the test on EKVX NSCLC is 4.74 µM; in the test on LOX IMVI melanoma, 1490 nM; with MDA-MB-435, 2660 nM; in the test on OVCAR-3 ovarian, 2840 nM; in the test with OVCAR-5 ovarian it was 6.76 µM; in the test with RXF 393 renal, 1390 nM. Besides, the GI50 with SK-MEL-28 melanoma is 1600 nM; with UACC-62 melanoma, 1750 nM.
Turning to `Clc1ccc(Cl)c(N/N=C\c2c[nH]c3ccccc23)c1`, the GI50 with EKVX NSCLC was 2.36 µM; with LOX IMVI melanoma, 4210 nM; with MDA-MB-435 it was 12200 nM; with OVCAR-3 ovarian, 11400 nM; with OVCAR-5 ovarian it was 17.3 µM; in the test on RXF 393 renal it was 10300 nM. The GI50 is 13800 nM in the test with SF-295 CNS, 22000 nM in the test on U251 CNS and 9920 nM with UACC-62 melanoma. The TGI in the test with EKVX NSCLC was 15.5 µM; with LOX IMVI melanoma, 74.7 µM; with MDA-MB-435, 28.1 µM; in the test with OVCAR-3 ovarian, 26.1 µM; in the test with OVCAR-5 ovarian it was 36.9 µM; with RXF 393 renal, 24.8 µM. Besides, the TGI in the test on SF-295 CNS was 70.4 µM; in the test with U251 CNS it was above 100 µM; in the test with UACC-62 melanoma it was 22.6 µM.
On to `COc1ccc(C(=O)CC2(O)C(=O)Nc3c(Cl)ccc(Cl)c32)cc1` (stereo not drawn), for which the GI50 is 2720 nM in the test on LOX IMVI melanoma; 225 nM in the test with MDA-MB-435; 701 nM in the test with OVCAR-3 ovarian; 5.23 µM in the test with OVCAR-5 ovarian; 3070 nM in the test on RXF 393 renal; 1350 nM in the test with SF-295 CNS. The GI50 in the test with SK-MEL-28 melanoma is 6220 nM; in the test on U251 CNS, 2330 nM; in the test with UACC-62 melanoma, 791 nM. Also, the TGI in the test with LOX IMVI melanoma was above 100 µM; in the test on MDA-MB-435, 0.649 µM; in the test on OVCAR-3 ovarian, 3.75 µM; in the test with OVCAR-5 ovarian, above 100 µM; in the test on RXF 393 renal, above 100 µM; with SF-295 CNS, 14.8 µM. The TGI in the test with SK-MEL-28 melanoma was above 100 µM; in the test on U251 CNS, above 62.3 µM; in the test on UACC-62 melanoma, above 100 µM.
For the compound `Nc1nc2nc3c(nc2c(=O)[nH]1)CN(c1ccc(C(=O)O)cc1)C3=O`, the TGI with EKVX NSCLC, with LOX IMVI melanoma, in the test on MDA-MB-435, with OVCAR-5 ovarian, in the test with RXF 393 renal and in the test with SF-295 CNS was above 100 µM each time. Further, the TGI in the test on SK-MEL-28 melanoma, in the test on U251 CNS and in the test with UACC-62 melanoma was above 100 µM throughout.
In the case of `CC[C@]1(O)C[C@@H]2CN(Cc3c([nH]c4ccccc34)[C@@](C(=O)OC)(c3cc4c(cc3OC)N(C)[C@H]3[C@@](O)(C(=O)OC)[C@H](OC(C)=O)[C@]5(CC)[C@@H]6C[C@@H]6CN6CC[C@]43[C@@H]65)C2)C1`, the GI50 in the test on LOX IMVI melanoma is 30.4 nM; in the test on MDA-MB-435, 6.12 nM; in the test on OVCAR-3 ovarian, 16.2 nM; in the test with OVCAR-5 ovarian, 0.144 µM; in the test on RXF 393 renal, 111 nM; with SF-295 CNS it was 137 nM. For the same compound, the GI50 is 82.2 nM in the test with SK-MEL-28 melanoma, 112 nM in the test with U251 CNS and 57.8 nM in the test with UACC-62 melanoma. Besides, the TGI was above 4.38 µM in the test with LOX IMVI melanoma; 0.0235 µM in the test on MDA-MB-435; above 4.38 µM in the test with OVCAR-5 ovarian; above 4.38 µM with RXF 393 renal; above 4.38 µM with SF-295 CNS; above 4.38 µM in the test on SK-MEL-28 melanoma. The TGI with U251 CNS and in the test with UACC-62 melanoma was above 4.38 µM each time.
